According to patent EP2048133A1 (Pharmeste S.r.l., priority 2007, dated 2009):
In brackets after ≈: the same amount, converted by molar mass. Read-outs that look alike come from different tables or passages of the source.

Legend:
[1] = Thermodynamic solubility in PBS; format: physicochemical; conditions: phosphate buffer pH 7.4, room temperature, stirring 36h, HPLC
Experimental: The standard solution was prepared by dissolving 1.4 mg of V405 in 10 mL of acetonitrile. A saturated solution of V405 was prepared by stirring 10 mL of phosphate buffer pH 7.4 in the presence of 10 mg of compound. The stirring was conducted at room temperature for 36h. The supernatant was filtered through a Millipore […] filter and 10 µL were used as sample for the HPLC determination. (Eluents: A = Water with 0.1% TFA, B = Acetonitrile + 0.1% TFA, Gradient: 0-100% B in 25 min, Column: SYMMETRY 300 C18 5 µM; 4,6 X 150 MM, […]). The solubility was determined by the following relationship: C'= percent area' C/percent area where C= concentration of standard solution (mg/ml), percent area': area of the peak of standard solution, percent area: area of the peak of saturated solution, C'= concentration of the saturated solution. The solubility was then expressed as […].

[2] = biological target: T1, CYP1A2 (Homo sapiens, UniProt P05177); assay: Fluorometric cytochrome P450 inhibition assay; format: in vitro ADME; conditions: tested from 0.1 µM to 10 µM, 37°C, read-out: Cytochrome P450 subtypes µM inhibition (estimated IC50) CYP1A2
T1 sequence (P05177 1-516): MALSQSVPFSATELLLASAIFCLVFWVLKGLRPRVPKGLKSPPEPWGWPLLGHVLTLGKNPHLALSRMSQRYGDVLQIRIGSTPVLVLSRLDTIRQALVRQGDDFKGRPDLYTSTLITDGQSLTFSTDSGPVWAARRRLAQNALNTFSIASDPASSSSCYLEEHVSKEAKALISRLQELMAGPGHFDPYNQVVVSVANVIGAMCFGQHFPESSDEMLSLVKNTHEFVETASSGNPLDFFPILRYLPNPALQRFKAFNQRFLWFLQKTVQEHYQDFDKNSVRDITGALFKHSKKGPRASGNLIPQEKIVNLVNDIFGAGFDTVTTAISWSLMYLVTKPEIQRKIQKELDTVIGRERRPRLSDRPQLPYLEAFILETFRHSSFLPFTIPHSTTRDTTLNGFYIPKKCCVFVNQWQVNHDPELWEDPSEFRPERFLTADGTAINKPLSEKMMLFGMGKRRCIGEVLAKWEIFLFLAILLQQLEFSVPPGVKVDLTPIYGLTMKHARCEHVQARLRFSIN
Experimental: (§1) A microtiter plate-based, direct, fluorometric assay was performed to analyze V405 inhibition potential of activities catalyzed by six of the major human liver cytochromes P450 (CYP) enzymes: CYP1A2, CYP2C9, CYP2C19, CYP2D6, CYP2E1 and CYP3A4. The six cytochrome P450 subtypes inhibition was tested from 0.1 µM to10 µM.
(§2) Four dilution points were evaluated (10 µM, 2.15 µM, 0.46 µM and 0.1 µM). A lid was placed on the plate and plate was placed at 37°C in a plate incubator for at least 10 minutes (to pre-warm the buffer and the plate). The reaction started when 0.1 mL enzyme/substrate solution mix was added to test wells. The plate was mixed and the reaction was continued incubating the lid-covered plate at 37°C for the desired time.
(§3) A stop solution was then added to all wells. and an enzyme/substrate mix was dispensed to the inverted blank wells (negative controls).
(§4) >The IC50 was calculated with a typical logistic curve fitting : % Inib = (Min-Max)/(1 + ((Conc)/(IC50)())^p) + Max [formula]

[3] = biological target: CYP2C19 (Homo sapiens, UniProt P33261); assay: Fluorometric cytochrome P450 inhibition assay; format: in vitro ADME; conditions: tested from 0.1 µM to 10 µM, 37°C, read-out: Cytochrome P450 subtypes µM inhibition (estimated IC50) CYP2C19
Experimental: as §1, §2, §3, §4

[4] = biological target: CYP2C9 (Homo sapiens, UniProt P11712); assay: Fluorometric cytochrome P450 inhibition assay; format: in vitro ADME; conditions: tested from 0.1 µM to 10 µM, 37°C, read-out: Cytochrome P450 subtypes µM inhibition (estimated IC50) CYP2C9
Experimental: as §1, §2, §3, §4

[5] = biological target: CYP2D6 (Homo sapiens, UniProt P10635); assay: Fluorometric cytochrome P450 inhibition assay; format: in vitro ADME; conditions: tested from 0.1 µM to 10 µM, 37°C, read-out: Cytochrome P450 subtypes µM inhibition (estimated IC50) CYP2D6
Experimental: as §1, §2, §3, §4

[6] = biological target: CYP2E1 (Homo sapiens, UniProt P05181); assay: Fluorometric cytochrome P450 inhibition assay; format: in vitro ADME; conditions: tested from 0.1 µM to 10 µM, 37°C, read-out: Cytochrome P450 subtypes µM inhibition (estimated IC50) CYP2E1
Experimental: as §1, §2, §3, §4

[7] = biological target: CYP3A4 (Homo sapiens, UniProt P08684); assay: Fluorometric cytochrome P450 inhibition assay; format: in vitro ADME; conditions: tested from 0.1 µM to 10 µM, 37°C, read-out: Cytochrome P450 subtypes µM inhibition (estimated IC50) CYP3A4
Experimental: as §1, §2, §3, §4

[8] = system: six of the major human liver cytochromes P450 (CYP) enzymes; assay: Cytochrome P450 inhibition, whole panel (qualitative statement); format: in vitro ADME; conditions: panel of six CYPs, each concentration tested (0.1-10 µM)
Experimental: as §1, §2, §3, §4

[9] = biological target: T2, TRPV1 expressed in rat spinal cord (Rattus norvegicus, UniProt O35433); assay: Radioligand binding assay ([3H]-RTX, spinal cord membranes)
T2 construct: the spinal cord was removed and disrupted using a Polytron tissue homogenizer; from tissue; host or cells: rat spinal cord membranes
Experimental: Male Sprague-Dawley rats with body weight between 250 to 350 g at the time for testing were used. For binding assays rats were sacrificed by decapitation under anesthesia and the spinal cord was removed and disrupted using a Polytron tissue homogenizer in ice cold buffer containing 5 mM KCl, 5.8 mM NaCl, 0.75 mM CaCl2, 2 mM MgCl2, 320 mM sucrose, 10 mM Hepes, pH 8.6.^5 The homogenized tissue was centrifuged at 1000 x g for 10 min at 4°C and the supernatant was centrifuged again at 35000 x g for 30 min at 4°C (Beckman Avanti J25). The pellet was resuspended in the same buffer as described above and used in binding experiments. In saturation experiments, 150 µg protein/sample from membrane suspensions were incubated with [^3H]-Resiniferatoxin ([^3H]-RTX) (0.003-3 nM) in the assay buffer containing 0.25 mg/ml fatty acid-free bovine serum albumin at 37°C for 60 min. In competition experiments, the membranes were incubated at 37°C for 60 min with [^3H]RTX (0.4 nM) and with increasing concentrations (from 0.1 nM to 3 µM) of examined compounds.
Non specific binding was evaluated in the presence of 1 µM RTX. After incubation the reaction mixture was cooled at 0°C and incubated with bovine α1-acid glycoprotein (200 µg per tube) for 15 min to reduce non-specific RTX binding. Membrane-bound RTX was separated from free RTX by centrifuging the samples at 18500 x g for 15 min. The tip of the microcentrifuge tube containing the pellet was cut off and the radioactivity was determined by scintillation counting (Packard 2500 TR). Protein concentration was determined according to a Bio-Rad method with bovine serum albumin as a standard reference (Bradford, 1976). Saturation and competition studies were analyzed with the Ligand program.

[10] = biological target: T3, TRPV1 expressing neurons (Rattus norvegicus, UniProt O35433); assay: Ca2+ fluorescence measurements in cultured dorsal root ganglia neurones; format: cell-based
T3 construct: Adult rats were terminally anaesthetized and decapitated; Dorsal root ganglia were removed; endogenous in cells; host or cells: primary cultured adult rat dorsal root ganglia neurons
Experimental: Adult rats were terminally anaesthetized and decapitated. […] The ganglia, placed in cold DMEM supplemented with 10% fetal bovine serum, 2 mM L-glutamine, 100 U/ml penicillin and 100 µg/ml streptomycin, were dissociated in single cells by several passages through a series of syringe needles (23G down to 25G). The medium and the ganglia were filtered to remove debris, topped up with 8 ml of DMEM medium and centrifuged (200 x g for 5 min). […] The cells were then washed twice with the Ca^2+ buffer solution and transferred to a chamber on the stage of a Nikon eclipse TE300 microscope. […] A calibration curve was set up using buffer containing Fura-2-AM-ester and determinant concentrations of free Ca^2+. This curve was then used to convert the data obtained from the F340/F380 ratio to [Ca^2+]¡ (nM).

[11] = Capsaicin-induced secondary allodynia; format: in vivo, rat; conditions: 30 µmol/kg orally 2 hours prior to capsaicin (5 nmols/50 µl/paw); 30 min after capsaicin challenge
Experimental: Capsaicin (5 nmols/50 µl/paw) was injected in the plantar surface of the glabrous skin of the right paw of rats anesthetized with diethyl ether (Chaplan et al., 1994). Compound V405 was orally administrated (30 µmol/kg) 2 hours prior to capsaicin injection. Tactile allodynia was evaluated 30 min after capsaicin challenge.

[12] = Body temperature measurements; format: in vivo, rat; conditions: 30 µmol/kg orally; for body temperature change: monitored for more than 3 hours
Experimental: Rats were placed in individual cages at room temperature (22-25°C). Rectal temperatures were recorded from awake animals by repeated insertion of a lubricated rectal thermocouple probe (model-8402-00, Cole-Palmer Instrument Company) prior to and following orally administration of V405 at 30 µmil/kg.

[13] = 0.1 µM capsaicin; mean and 95% fiducial limits; read-out: IC50 of inhibition of capsaicin-evoked [Ca2+]i mobilization

T2 sequence (O35433 whole entry): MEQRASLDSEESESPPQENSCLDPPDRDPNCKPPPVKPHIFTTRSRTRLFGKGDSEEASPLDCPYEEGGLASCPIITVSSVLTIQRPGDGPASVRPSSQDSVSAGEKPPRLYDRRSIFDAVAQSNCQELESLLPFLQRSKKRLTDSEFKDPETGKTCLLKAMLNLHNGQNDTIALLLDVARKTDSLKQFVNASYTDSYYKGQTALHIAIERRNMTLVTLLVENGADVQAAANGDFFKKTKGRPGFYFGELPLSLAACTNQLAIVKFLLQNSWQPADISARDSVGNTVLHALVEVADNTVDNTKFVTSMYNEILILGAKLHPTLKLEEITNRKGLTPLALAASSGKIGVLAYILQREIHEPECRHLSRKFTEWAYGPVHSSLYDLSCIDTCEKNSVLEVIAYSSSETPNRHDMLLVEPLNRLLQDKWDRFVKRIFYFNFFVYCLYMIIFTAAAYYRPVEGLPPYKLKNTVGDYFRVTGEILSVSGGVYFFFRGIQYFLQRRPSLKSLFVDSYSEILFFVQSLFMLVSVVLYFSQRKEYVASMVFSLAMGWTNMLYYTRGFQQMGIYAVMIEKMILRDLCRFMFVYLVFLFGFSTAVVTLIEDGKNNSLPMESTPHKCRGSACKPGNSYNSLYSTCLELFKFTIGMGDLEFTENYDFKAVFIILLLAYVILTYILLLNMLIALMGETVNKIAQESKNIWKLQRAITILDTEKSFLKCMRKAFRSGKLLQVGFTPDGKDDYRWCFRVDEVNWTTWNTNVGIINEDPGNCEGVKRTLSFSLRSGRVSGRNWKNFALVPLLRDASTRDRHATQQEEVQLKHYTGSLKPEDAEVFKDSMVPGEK
T3 sequence (O35433 whole entry): as above
Chain of CYP2D6 (P10635 whole entry): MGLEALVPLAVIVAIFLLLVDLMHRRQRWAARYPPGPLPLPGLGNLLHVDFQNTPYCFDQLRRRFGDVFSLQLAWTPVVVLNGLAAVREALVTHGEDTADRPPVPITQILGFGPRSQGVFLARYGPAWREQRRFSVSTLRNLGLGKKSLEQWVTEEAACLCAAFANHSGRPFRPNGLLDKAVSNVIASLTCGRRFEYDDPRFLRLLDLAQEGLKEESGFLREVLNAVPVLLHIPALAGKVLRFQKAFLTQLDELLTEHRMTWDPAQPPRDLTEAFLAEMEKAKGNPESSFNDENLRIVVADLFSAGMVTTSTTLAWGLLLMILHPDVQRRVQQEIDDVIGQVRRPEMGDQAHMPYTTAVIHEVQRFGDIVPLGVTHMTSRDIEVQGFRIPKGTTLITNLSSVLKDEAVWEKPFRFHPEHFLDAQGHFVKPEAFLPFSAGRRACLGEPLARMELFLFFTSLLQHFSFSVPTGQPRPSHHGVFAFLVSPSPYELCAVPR
Chain of CYP2C19 (P33261 whole entry): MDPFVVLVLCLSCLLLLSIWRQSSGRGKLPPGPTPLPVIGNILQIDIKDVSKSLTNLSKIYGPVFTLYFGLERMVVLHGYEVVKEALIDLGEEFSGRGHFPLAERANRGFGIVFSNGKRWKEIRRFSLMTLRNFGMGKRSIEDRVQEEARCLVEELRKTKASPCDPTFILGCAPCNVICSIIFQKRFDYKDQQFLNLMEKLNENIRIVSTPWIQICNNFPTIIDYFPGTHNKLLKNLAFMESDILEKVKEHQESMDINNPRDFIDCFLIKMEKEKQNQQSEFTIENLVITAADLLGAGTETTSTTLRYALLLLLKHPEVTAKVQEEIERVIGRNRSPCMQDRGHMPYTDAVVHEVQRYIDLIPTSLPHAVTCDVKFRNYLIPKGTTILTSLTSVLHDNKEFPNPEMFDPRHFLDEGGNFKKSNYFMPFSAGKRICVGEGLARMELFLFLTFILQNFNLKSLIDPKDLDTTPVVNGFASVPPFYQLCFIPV
Chain of CYP2C9 (P11712 whole entry): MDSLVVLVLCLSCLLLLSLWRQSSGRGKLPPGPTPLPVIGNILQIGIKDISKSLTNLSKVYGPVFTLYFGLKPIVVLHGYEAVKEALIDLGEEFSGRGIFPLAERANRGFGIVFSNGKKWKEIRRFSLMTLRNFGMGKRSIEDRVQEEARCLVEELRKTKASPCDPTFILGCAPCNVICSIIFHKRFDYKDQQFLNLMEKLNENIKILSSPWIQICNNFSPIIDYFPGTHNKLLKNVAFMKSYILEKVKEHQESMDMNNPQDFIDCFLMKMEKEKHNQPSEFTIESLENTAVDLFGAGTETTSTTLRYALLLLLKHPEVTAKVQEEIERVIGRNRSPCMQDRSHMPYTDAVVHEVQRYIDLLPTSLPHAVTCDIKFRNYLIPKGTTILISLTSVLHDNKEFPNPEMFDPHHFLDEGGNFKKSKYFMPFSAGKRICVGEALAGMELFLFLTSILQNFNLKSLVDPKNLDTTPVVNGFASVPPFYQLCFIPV
Chain of CYP3A4 (P08684 whole entry): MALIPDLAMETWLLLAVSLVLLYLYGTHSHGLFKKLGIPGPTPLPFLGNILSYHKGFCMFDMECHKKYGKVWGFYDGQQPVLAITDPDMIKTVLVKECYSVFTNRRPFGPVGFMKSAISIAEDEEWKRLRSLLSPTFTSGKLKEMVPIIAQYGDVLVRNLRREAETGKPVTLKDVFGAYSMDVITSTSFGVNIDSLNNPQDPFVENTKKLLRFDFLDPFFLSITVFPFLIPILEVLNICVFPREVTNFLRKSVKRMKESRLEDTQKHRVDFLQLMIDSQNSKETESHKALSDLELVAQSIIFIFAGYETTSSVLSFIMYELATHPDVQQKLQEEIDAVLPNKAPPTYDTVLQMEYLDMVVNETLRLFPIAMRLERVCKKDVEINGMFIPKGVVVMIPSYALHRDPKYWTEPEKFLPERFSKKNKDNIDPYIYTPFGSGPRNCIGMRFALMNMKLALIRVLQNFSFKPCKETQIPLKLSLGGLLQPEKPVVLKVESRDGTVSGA
Chain of CYP2E1 (P05181 whole entry): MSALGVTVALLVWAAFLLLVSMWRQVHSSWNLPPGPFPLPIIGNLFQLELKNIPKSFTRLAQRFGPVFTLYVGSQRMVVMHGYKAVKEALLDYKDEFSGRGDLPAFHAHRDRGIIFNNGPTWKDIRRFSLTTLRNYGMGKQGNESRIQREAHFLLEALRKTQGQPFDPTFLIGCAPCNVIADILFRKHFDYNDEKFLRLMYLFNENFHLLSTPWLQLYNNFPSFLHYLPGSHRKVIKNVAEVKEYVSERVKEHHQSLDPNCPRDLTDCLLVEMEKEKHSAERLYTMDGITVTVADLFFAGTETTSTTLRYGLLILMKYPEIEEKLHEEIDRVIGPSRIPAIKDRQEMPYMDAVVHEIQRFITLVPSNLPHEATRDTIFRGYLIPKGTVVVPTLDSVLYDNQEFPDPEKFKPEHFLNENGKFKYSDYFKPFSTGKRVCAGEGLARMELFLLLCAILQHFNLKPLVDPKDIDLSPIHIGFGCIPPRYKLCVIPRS

With `O=C(Nc1ccc(Cl)cc1)c1ccc(-c2cccc3cnccc23)[n+]([O-])c1` [Example V405] the solubility thermodynamic at 36 h ([1]; 2160 min) was 106.4 µM (≈ 40 µg/mL), the solubility thermodynamic at 36 h ([1]; phosphate buffer, pH 7.4, aqueous buffer) was 106 µM (≈ 39.8 µg/mL) and the IC50 [2] was over 10 µM. It also gave an IC50 [3] of over 10 µM, an IC50 [4] of over 10 µM and an IC50 [5] of over 10 µM. For the same compound, the IC50 [6] was over 10 µM, the IC50 [7] was over 10 µM and the “interaction with the evaluated cytochromes” value [8] was “does not interact”. For the same compound, the Ki [9] was 203 nM, the IC50 ([10]; read-out: IC50 of inhibition of capsaicin-evoked [Ca2+]i mobilization; 0.1 µM capsaicin; mean and 95% fiducial limits) was 15 nM and the “preventive effect against the pro-allodinic effect of capsaicin” value [11] was 55%. For the same compound, the body temperature change [12] was “No significant temperature change” and the body temperature change ([12]; listed as compound 1) was “does not cause thermal increase”.

Compound `COc1cccc(NC(=O)/C=C/c2ccc(Cl)cc2)c1` [SB-366791, (E)-3-(4-chlorophenyl)-N-(3-methoxyphenyl)acrylamide] has a Ki ([9]; competition with [3H]RTX (0.4 nM), 37°C, 60 min, read-out: Ki) of 36 nM and an IC50 [10, 13] of 8.7 nM.

`C=C(C)[C@]12C[C@@H](C)[C@@]34O[C@](Cc5ccccc5)(O[C@@H]1[C@@H]3C=C(COC(=O)Cc1ccc(O)c(OC)c1)C[C@]1(O)C(=O)C(C)=C[C@@H]41)O2` [[^3H]-RTX, [^3H]-Resiniferatoxin] showed a Kd ([9]; saturation curve, [3H]-RTX 0.003-3 nM, 37°C, 60 min, mean (95% limits)) of 0.21 nM.

Work on `Oc1cc2c(cc1O)CN(C(=S)NCCc1ccc(Cl)cc1)CCC2` [capsazepine] yielded an IC50 [10, 13] of 948 nM.

For `O=C(Nc1ccc(Cl)cc1)c1ccc(-c2cccc3cnccc23)nc1` [non-oxidized homologous, N-(4-chlorophenyl)-6-(isoquinolin-5-yl)pyridine-3-carboxamide, reference compound], the Thermodynamic solubility [1] was “not soluble” and the “temperature increase (mean value) with respect to control animals” value ([12]; during the whole experiment (more than 3 hours)) was “+0.5 °C”.
